Results from ChEMBL document CHEMBL1201862, “PubChem BioAssay data set” (2004).
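Dose response: 5 concentrations. Exposure: 48 h. Format: 96-well plates. Endpoint: linear interpolation; highest concentration if not reached. Abbreviation: GI50, concentration required for 50% inhibition of growth.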 The source made the active and inactive calls. No stated cut-off is given here; in the data, active = GI50 up to about 1.1 µM and inactive = higher.

Key:
Assay in all cases: DTP human tumour cell line panel, 48 h
SK-MEL-5 = system: SK-MEL-5
NCI/ADR-RES = system: NCI/ADR-RES
UACC-62 = system: UACC-62
SK-MEL-28 = system: SK-MEL-28
MOLT-4 = system: MOLT-4
TK-10 = system: TK-10
MDA-N = system: MDA-N
SN12C = system: SN12C
SR = system: SR
NCI-H522 = system: NCI-H522
COLO 205 = system: COLO 205
HOP-62 = system: HOP-62
U-251 = system: U-251
A498 = system: A498
MCF7 = system: MCF7
SF-295 = system: SF-295
BT-549 = system: BT-549
ACHN = system: ACHN
NCI-H226 = system: NCI-H226
NCI-H23 = system: NCI-H23
SK-MEL-2 = system: SK-MEL-2
EKVX = system: EKVX
Hs-578T = system: Hs-578T
CAKI-1 = system: CAKI-1
SF-268 = system: SF-268
HL-60 = system: HL-60
HCT-116 = system: HCT-116
CCRF-CEM = system: CCRF-CEM
UACC-257 = system: UACC-257
Malme-3M = system: Malme-3M
RPMI-8226 = system: RPMI-8226
786-0 = system: 786-0
T47D = system: T47D
SK-OV-3 = system: SK-OV-3
OVCAR-5 = system: OVCAR-5
SNB-19 = system: SNB-19
HT-29 = system: HT-29
SNB-75 = system: SNB-75
MDA-MB-231 = system: MDA-MB-231
SF-539 = system: SF-539
LOX IMVI = system: LOX IMVI
M14 = system: M14
OVCAR-8 = system: OVCAR-8
KM12 = system: KM12
MDA-MB-435 = system: MDA-MB-435
UO-31 = system: UO-31
A549 = system: A549
PC-3 = system: PC-3
RXF 393 = system: RXF 393
DU-145 = system: DU-145
HCT-15 = system: HCT-15
SW-620 = system: SW-620
IGROV-1 = system: IGROV-1
K562 = system: K562
NCI-H460 = system: NCI-H460
HCC 2998 = system: HCC 2998
OVCAR-3 = system: OVCAR-3
HOP-92 = system: HOP-92
OVCAR-4 = system: OVCAR-4

CN(C)CCSc1cc(-c2ccccc2)c2ccccc2n1
GI50 (SK-MEL-5): 1.63 µM (inactive)
GI50 (NCI/ADR-RES): 14.9 µM (inactive)
GI50 (UACC-62): 2.59 µM (inactive)
GI50 (SK-MEL-28): 4.7 µM (inactive)
GI50 (MOLT-4): 6.38 µM (inactive)
GI50 (TK-10): 7.93 µM (inactive)
GI50 (MDA-N): 10.2 µM (inactive)
GI50 (SN12C): 15 µM (inactive)
GI50 (SR): 13.6 µM (inactive)
GI50 (NCI-H522): 10.7 µM (inactive)
GI50 (COLO 205): 1.97 µM (inactive)
GI50 (HOP-62): 10.3 µM (inactive)
GI50 (U-251): 10.6 µM (inactive)
GI50 (A498): 16 µM (inactive)
GI50 (MCF7): 13.2 µM (inactive)
GI50 (SF-295): 12.6 µM (inactive)
GI50 (BT-549): 12.3 µM (inactive)
GI50 (ACHN): 13.5 µM (inactive)
GI50 (NCI-H226): 16.6 µM (inactive)
GI50 (NCI-H23): 10 µM (inactive)
GI50 (SK-MEL-2): 14.2 µM (inactive)
GI50 (EKVX): 15.7 µM (inactive)
GI50 (Hs-578T): 10.3 µM (inactive)
GI50 (CAKI-1): 16.3 µM (inactive)
GI50 (SF-268): 11.8 µM (inactive)
GI50 (HL-60): 3.69 µM (inactive)
GI50 (HCT-116): 7.43 µM (inactive)
GI50 (CCRF-CEM): 10.5 µM (inactive)
GI50 (UACC-257): 10.4 µM (inactive)
GI50 (Malme-3M): 10.8 µM (inactive)
GI50 (RPMI-8226): 17.3 µM (inactive)
GI50 (786-0): 10.8 µM (inactive)
GI50 (T47D): 15.4 µM (inactive)
GI50 (SK-OV-3): 3.91 µM (inactive)
GI50 (OVCAR-5): 13.4 µM (inactive)
GI50 (SNB-19): 13.6 µM (inactive)
GI50 (HT-29): 5.78 µM (inactive)
GI50 (SNB-75): 4.04 µM (inactive)
GI50 (MDA-MB-231): 11.3 µM (inactive)
GI50 (SF-539): 9.18 µM (inactive)
GI50 (LOX IMVI): 10.4 µM (inactive)
GI50 (M14): 2.69 µM (inactive)
GI50 (OVCAR-8): 19.1 µM (inactive)
GI50 (KM12): 14.3 µM (inactive)
GI50 (MDA-MB-435): 10.1 µM (inactive)
GI50 (UO-31): 10.6 µM (inactive)
GI50 (A549): 13.6 µM (inactive)
GI50 (PC-3): 12.2 µM (inactive)
GI50 (RXF 393): 3.14 µM (inactive)
GI50 (DU-145): 15.4 µM (inactive)
GI50 (HCT-15): 3.82 µM
GI50 (SW-620): 6.14 µM (inactive)
GI50 (IGROV-1): 12.9 µM (inactive)
GI50 (K562): 2.09 µM (inactive)

CCOC(=O)c1cn(CC)c2cc3c(cc2c1=O)CCS3(=O)=O
GI50 (SK-MEL-5): > 100 µM (inactive)
GI50 (NCI/ADR-RES): > 100 µM (inactive)
GI50 (UACC-62): > 100 µM (inactive)
GI50 (NCI-H460): > 100 µM (inactive)
GI50 (SK-MEL-28): > 100 µM (inactive)
GI50 (MOLT-4): > 100 µM (inactive)
GI50 (TK-10): > 100 µM (inactive)
GI50 (MDA-N): > 100 µM (inactive)
GI50 (SN12C): > 100 µM (inactive)
GI50 (SR): > 100 µM (inactive)
GI50 (HOP-62): > 100 µM (inactive)
GI50 (U-251): > 100 µM (inactive)
GI50 (A498): > 100 µM (inactive)
GI50 (HCC 2998): > 100 µM (inactive)
GI50 (MCF7): > 100 µM (inactive)
GI50 (SF-295): > 100 µM (inactive)
GI50 (BT-549): > 100 µM (inactive)
GI50 (ACHN): > 100 µM (inactive)
GI50 (NCI-H226): > 100 µM (inactive)
GI50 (NCI-H23): > 100 µM (inactive)
GI50 (SK-MEL-2): 19.1 µM (inactive)
GI50 (EKVX): > 100 µM (inactive)
GI50 (Hs-578T): > 100 µM (inactive)
GI50 (SF-268): > 100 µM (inactive)
GI50 (HL-60): > 100 µM (inactive)
GI50 (HCT-116): > 100 µM (inactive)
GI50 (CCRF-CEM): > 100 µM (inactive)
GI50 (Malme-3M): > 100 µM (inactive)
GI50 (786-0): > 100 µM (inactive)
GI50 (T47D): > 100 µM (inactive)
GI50 (SK-OV-3): > 100 µM (inactive)
GI50 (OVCAR-3): > 100 µM (inactive)
GI50 (OVCAR-5): > 100 µM (inactive)
GI50 (HOP-92): > 100 µM (inactive)
GI50 (SNB-19): > 100 µM (inactive)
GI50 (HT-29): > 100 µM (inactive)
GI50 (MDA-MB-231): > 100 µM (inactive)
GI50 (SF-539): > 100 µM (inactive)
GI50 (M14): > 100 µM (inactive)
GI50 (OVCAR-8): > 100 µM (inactive)
GI50 (KM12): > 100 µM (inactive)
GI50 (MDA-MB-435): > 100 µM (inactive)
GI50 (UO-31): > 100 µM (inactive)
GI50 (A549): > 100 µM (inactive)
GI50 (PC-3): > 100 µM (inactive)
GI50 (RXF 393): > 100 µM (inactive)
GI50 (DU-145): > 100 µM (inactive)
GI50 (HCT-15): > 100 µM
GI50 (SW-620): > 100 µM (inactive)
GI50 (IGROV-1): > 100 µM (inactive)
GI50 (K562): > 100 µM (inactive)

Cc1ccc2c(c1)C(=O)/C(=C\c1ccc(Cl)cc1)CCS2(=O)=O
GI50 (SK-MEL-5): 3.22 µM (inactive)
GI50 (NCI/ADR-RES): 2.18 µM (inactive)
GI50 (UACC-62): 3.15 µM (inactive)
GI50 (NCI-H460): 2.13 µM (inactive)
GI50 (SK-MEL-28): 4.59 µM (inactive)
GI50 (MOLT-4): 1.85 µM (inactive)
GI50 (TK-10): 2.1 µM (inactive)
GI50 (MDA-N): 4.81 µM (inactive)
GI50 (SN12C): 2.86 µM (inactive)
GI50 (SR): 1.66 µM (inactive)
GI50 (NCI-H522): 1.52 µM (inactive)
GI50 (COLO 205): 3.85 µM (inactive)
GI50 (HOP-62): 6.67 µM (inactive)
GI50 (U-251): 3.38 µM (inactive)
GI50 (A498): 12.4 µM (inactive)
GI50 (HCC 2998): 2.13 µM (inactive)
GI50 (MCF7): 3.85 µM (inactive)
GI50 (SF-295): 4.21 µM (inactive)
GI50 (BT-549): 3.8 µM (inactive)
GI50 (ACHN): 1.95 µM (inactive)
GI50 (NCI-H226): 3.84 µM (inactive)
GI50 (NCI-H23): 3.28 µM (inactive)
GI50 (SK-MEL-2): 19.4 µM (inactive)
GI50 (EKVX): 11.3 µM (inactive)
GI50 (Hs-578T): 3.1 µM (inactive)
GI50 (CAKI-1): 3.07 µM (inactive)
GI50 (SF-268): 3.12 µM (inactive)
GI50 (HL-60): 2.66 µM (inactive)
GI50 (HCT-116): 1.65 µM (inactive)
GI50 (CCRF-CEM): 2 µM (inactive)
GI50 (UACC-257): 2.65 µM (inactive)
GI50 (Malme-3M): 2.07 µM (inactive)
GI50 (RPMI-8226): 2.34 µM (inactive)
GI50 (786-0): 1.69 µM (inactive)
GI50 (T47D): 1.41 µM (inactive)
GI50 (SK-OV-3): 7.82 µM (inactive)
GI50 (OVCAR-3): 4.24 µM (inactive)
GI50 (OVCAR-5): 12.4 µM (inactive)
GI50 (HOP-92): 3.53 µM (inactive)
GI50 (SNB-19): 2.1 µM (inactive)
GI50 (HT-29): 2.55 µM (inactive)
GI50 (SNB-75): 3.88 µM (inactive)
GI50 (MDA-MB-231): 3.58 µM (inactive)
GI50 (OVCAR-4): 2.64 µM (inactive)
GI50 (SF-539): 2 µM (inactive)
GI50 (LOX IMVI): 2.54 µM (inactive)
GI50 (M14): 4.05 µM (inactive)
GI50 (OVCAR-8): 1.95 µM (inactive)
GI50 (KM12): 2.66 µM (inactive)
GI50 (MDA-MB-435): 4.35 µM (inactive)
GI50 (UO-31): 2.9 µM (inactive)
GI50 (A549): 4.06 µM (inactive)
GI50 (PC-3): 5.09 µM (inactive)
GI50 (DU-145): 2.66 µM (inactive)
GI50 (HCT-15): 1.97 µM
GI50 (SW-620): 3.18 µM (inactive)
GI50 (IGROV-1): 2.65 µM (inactive)
GI50 (K562): 1.42 µM (inactive)
